Test results taken from patent US7994209B2, “3-phenoxymethylpyrrolidine compounds” (Theravance, Inc., priority 2009, dated 2011).
pKi: −log10 of the molar value.

How the values were obtained:
hNET [1] = target: T1, hNET (Homo sapiens, UniProt P23975); assay: hNET membrane radioligand binding assay (3H-nisoxetine), Assay 1
hNET [2] = target: T1, hNET; assay: hNET neurotransmitter uptake assay (3H-NE), Assay 2; format: cell-based; parameters: expressed in transfected cells; host or cells: HEK-293; conditions: norepinephrine reuptake inhibition, 3H-NE uptake, HEK-293 hNET cells (values without asterisk); read-out: NET pIC50 (converted)
Procedure: (§1) Cells were harvested by centrifugation at 1100 rpm for 5 minutes, washed once by resuspension in PBS, then centrifuged. The supernatant was discarded and the cell pellet resuspended, by gentle trituration, in room temperature Krebs-Ringer bicarbonate buffer containing HEPES (10 mM), CaCl2 (2.2 mM), ascorbic acid (200 μM) and pargyline (200 μM), pH 7.4.
(§2) Test compounds were incubated for 30 minutes at 37° C. with the respective cells, prior to addition of radiolabeled neurotransmitter, ^3H-5-HT (20 nM final concentration), ^3H-NE (50 nM final concentration) or ^3H-DA (100 nM final concentration).

hSERT [3] = target: T2, hSERT (Homo sapiens, UniProt P31645); assay: hSERT membrane radioligand binding assay (3H-citalopram), Assay 1; conditions: SERT pKi, hSERT HEK-293 membranes, 1.0 nM 3H-citalopram; values given as lower bounds
T2 sequence (P31645 whole entry): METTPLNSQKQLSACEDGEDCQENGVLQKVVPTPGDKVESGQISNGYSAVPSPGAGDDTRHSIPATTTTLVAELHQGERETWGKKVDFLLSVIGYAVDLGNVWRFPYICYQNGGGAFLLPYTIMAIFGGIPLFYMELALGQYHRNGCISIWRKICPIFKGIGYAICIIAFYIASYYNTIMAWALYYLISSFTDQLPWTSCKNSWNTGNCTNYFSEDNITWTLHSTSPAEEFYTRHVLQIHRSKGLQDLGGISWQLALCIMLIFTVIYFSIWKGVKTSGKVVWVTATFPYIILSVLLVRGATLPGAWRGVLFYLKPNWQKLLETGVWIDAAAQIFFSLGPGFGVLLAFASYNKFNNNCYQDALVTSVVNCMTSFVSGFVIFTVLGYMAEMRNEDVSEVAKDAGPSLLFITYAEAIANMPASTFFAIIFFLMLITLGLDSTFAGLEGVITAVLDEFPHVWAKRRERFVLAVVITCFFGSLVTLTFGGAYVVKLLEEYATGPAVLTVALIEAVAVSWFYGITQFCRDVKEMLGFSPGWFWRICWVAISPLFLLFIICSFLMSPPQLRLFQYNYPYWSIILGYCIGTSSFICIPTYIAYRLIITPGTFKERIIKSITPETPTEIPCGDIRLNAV
Procedure: Membrane radioligand binding assays were used to measure inhibition of labeled ligand (^3H-citalopram or ^3H-nisoxetine or ^3H-WIN35428) binding to membranes prepared from cells expressing the respective human recombinant transporter (hSERT or hNET or hDAT) in order to determine the pKi values of test compounds at the transporters.
Recombinant human embryonic kidney (HEK-293) derived cell lines stably transfected with hSERT or hNET, respectively, were grown in DMEM medium supplemented with 10% dialyzed FBS (for hSERT) or FBS (for hNET), 100 μg/mL penicillin, 100 μg/mL streptomycin, 2 mM L-glutamine and 250 μg/mL of the aminoglycoside antibiotic G418, in a 5% CO2 humidified incubator at 37° C. When cultures reached 80% confluence, the cells were washed thoroughly in PBS (without Ca^2+ and Mg^2+) and lifted with 5 mM EDTA in PBS. Cells were pelleted by centrifugation, resuspended in lysis buffer (10 mM Tris-HCl, pH7.5 containing 1 mM EDTA), homogenized, pelleted by centrifugation, then resuspended in 50 mM Tris-HCl, pH 7.5 and 10% sucrose at 4° C. Protein concentration of the membrane suspension was determined using a Bio-Rad Bradford Protein Assay kit. Membranes were snap frozen and stored at −80° C.
Binding assays were performed in a 96-well assay plate in a total volume of 200 μl assay buffer (50 mM Tris-HCl, 120 mM NaCl, 5 mM KCl, pH 7.4) with 0.5, 1, and 3 μg membrane protein, for SERT, NET and DAT, respectively.
Stock solutions (10 mM in DMSO) of test compound were prepared and serial dilutions made using Dilution Buffer (50 mM Tris-HCl, 120 mM NaCl, 5 mM KCl, pH 7.4, 0.1% BSA, 400 μM ascorbic acid).
Following a 60 minute incubation at 22° C. (or a period sufficient to reach equilibrium), the membranes were harvested by rapid filtration over a 96-well UniFilter GF/B plate, pretreated with 0.3% polyethyleneimine, and washed 6 times with 300 μl wash buffer (50 mM Tris-HCl, 0.9% NaCl, pH 7.5 at 4° C.). Plates were dried overnight at room temperature, approximately 45 μl of MicroScint™-20 (Perkin Elmer) added and bound radioactivity quantitated via liquid scintillation spectroscopy. Inhibition curves and saturation isotherms were analyzed using GraphPad Prism Software package (GraphPad Software, Inc., San Diego, Calif.). IC50 values were generated from concentration response curves using the Sigmoidal Dose Response (variable slope) algorithm in Prism GraphPad.

hSERT [4] = target: T2, hSERT; assay: hSERT neurotransmitter uptake assay (3H-5-HT), Assay 2; format: cell-based; parameters: expressed in transfected cells; host or cells: HEK-293; conditions: serotonin reuptake inhibition, 3H-5-HT uptake, HEK-293 hSERT cells (values without asterisk); read-out: SERT pIC50 (converted)
Procedure: as §1, §2

T1 sequence (P23975 whole entry): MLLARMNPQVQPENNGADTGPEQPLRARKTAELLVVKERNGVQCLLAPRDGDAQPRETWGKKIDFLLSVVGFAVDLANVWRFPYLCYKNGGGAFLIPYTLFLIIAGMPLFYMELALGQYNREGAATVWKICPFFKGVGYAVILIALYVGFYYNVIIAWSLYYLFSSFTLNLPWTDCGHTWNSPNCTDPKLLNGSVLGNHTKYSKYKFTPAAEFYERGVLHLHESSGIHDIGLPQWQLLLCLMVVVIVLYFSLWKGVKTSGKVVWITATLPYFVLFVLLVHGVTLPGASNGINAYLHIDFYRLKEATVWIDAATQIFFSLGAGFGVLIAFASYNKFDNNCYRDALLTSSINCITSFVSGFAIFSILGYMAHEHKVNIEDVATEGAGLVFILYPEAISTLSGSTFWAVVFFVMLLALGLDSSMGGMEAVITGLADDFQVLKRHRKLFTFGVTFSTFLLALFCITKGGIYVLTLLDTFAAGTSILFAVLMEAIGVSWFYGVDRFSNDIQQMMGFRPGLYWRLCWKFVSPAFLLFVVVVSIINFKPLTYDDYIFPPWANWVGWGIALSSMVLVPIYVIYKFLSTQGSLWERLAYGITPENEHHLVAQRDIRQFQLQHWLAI

Compound: CC[C@@H](Oc1cccc(Cl)c1Cl)[C@@H]1CCNC1 [Example 2-29, (R)-3-[(R)-1-(2,3-Dichlorophenoxy)propyl]pyrrolidine]
- pKi (hNET [1]): ≥ 8.00
- IC50 (hNET [2]): ≤ 10 nM
- pKi (hSERT [3]): ≥ 8.00
- IC50 (hSERT [4]): ≤ 10 nM

Compound: CC[C@H](Oc1ccc(F)cc1Cl)[C@H]1CCNC1 [Example 2-32, (S)-3-[(S)-1-(2-Chloro-4-fluorophenoxy)propyl]pyrrolidine]
- pKi (hNET [1]): ≥ 8.00
- IC50 (hNET [2]): ≤ 10 nM
- pKi (hSERT [3]): ≥ 8.00
- IC50 (hSERT [4]): ≤ 10 nM

Compound: CC[C@H](Oc1c(Cl)ccc(Cl)c1Cl)[C@H]1CCNC1 [Example 2-37, (S)-3-[(S)-1-(2,3,6-Trichlorophenoxy)propyl]pyrrolidine]
- pKi (hNET [1]): ≥ 8.00
- IC50 (hNET [2]): ≤ 10 nM
- pKi (hSERT [3]): ≥ 8.00
- IC50 (hSERT [4]): ≤ 100 nM

Compound: CC[C@@H](Oc1c(Cl)ccc(Cl)c1Cl)[C@H]1CCNC1 [Example 2-38, (S)-3-[(R)-1-(2,3,6-Trichlorophenoxy)propyl]pyrrolidine]
- pKi (hNET [1]): ≥ 8.00
- IC50 (hNET [2]): ≤ 10 nM
- pKi (hSERT [3]): ≥ 8.00
- IC50 (hSERT [4]): ≤ 100 nM

Compound: CC[C@@H](Oc1c(F)ccc(Cl)c1Cl)[C@H]1CCNC1 [Example 2-39, (S)-3-[(R)-1-(2,3-Dichloro-6-fluorophenoxy)propyl]pyrrolidine]
- pKi (hNET [1]): ≥ 8.00
- IC50 (hNET [2]): ≤ 10 nM
- pKi (hSERT [3]): ≥ 8.00
- IC50 (hSERT [4]): ≤ 100 nM

Compound: CC[C@H](Oc1c(F)ccc(F)c1Cl)[C@H]1CCNC1 [Example 2-40, (S)-3-[(S)-1-(2-Chloro-3,6-difluorophenoxy)propyl]pyrrolidine]
- pKi (hNET [1]): ≥ 8.00
- IC50 (hNET [2]): ≤ 10 nM
- pKi (hSERT [3]): ≥ 8.00
- IC50 (hSERT [4]): ≤ 100 nM

Compound: CC[C@@H](Oc1c(F)ccc(F)c1Cl)[C@H]1CCNC1 [Example 2-41, (S)-3-[(R)-1-(2-Chloro-3,6-difluorophenoxy)propyl]pyrrolidine]
- pKi (hNET [1]): ≥ 8.00
- IC50 (hNET [2]): ≤ 10 nM
- pKi (hSERT [3]): ≥ 8.00
- IC50 (hSERT [4]): ≤ 100 nM

Compound: CC[C@H](Oc1ccc(Cl)c(F)c1Cl)[C@H]1CCNC1 [Example 2-42, (S)-3-[(S)-1-(2,4-Dichloro-3-fluorophenoxy)propyl]pyrrolidine]
- pKi (hNET [1]): ≥ 8.00
- IC50 (hNET [2]): ≤ 10 nM
- pKi (hSERT [3]): ≥ 8.00
- IC50 (hSERT [4]): ≤ 10 nM

Compound: CC[C@H](Oc1c(C)cc(Cl)cc1Cl)[C@H]1CCNC1 [Example 2-43, (S)-3-[(S)-1-(2,4-Dichloro-6-methylphenoxy)propyl]pyrrolidine]
- pKi (hNET [1]): ≥ 8.00
- IC50 (hNET [2]): ≤ 10 nM
- pKi (hSERT [3]): ≥ 8.00
- IC50 (hSERT [4]): ≤ 100 nM

Compound: CC[C@H](Oc1c(F)ccc(OC)c1Cl)[C@H]1CCNC1 [Example 2-44, (S)-3-[(S)-1-(2-Chloro-6-fluoro-3-methoxyphenoxy)propyl]pyrrolidine]
- pKi (hNET [1]): ≥ 8.00
- IC50 (hNET [2]): ≤ 10 nM
- pKi (hSERT [3]): ≥ 8.00
- IC50 (hSERT [4]): ≤ 10 nM

Compound: CC[C@H](Oc1ccc(Cl)cc1F)[C@H]1CCNC1 [Example 2-47, (S)-3-[(S)-1-(4-Chloro-2-fluorophenoxy)propyl]pyrrolidine]
- pKi (hNET [1]): ≥ 8.00
- IC50 (hNET [2]): ≤ 10 nM
- pKi (hSERT [3]): ≥ 8.00
- IC50 (hSERT [4]): ≤ 100 nM

Compound: CC[C@H](Oc1c(F)cc(Cl)cc1F)[C@H]1CCNC1 [Example 2-48, (S)-3-[(S)-1-(4-Chloro-2,6-difluorophenoxy)propyl]pyrrolidine]
- pKi (hNET [1]): ≥ 8.00
- IC50 (hNET [2]): ≤ 10 nM
- pKi (hSERT [3]): ≥ 8.00
- IC50 (hSERT [4]): ≤ 10 nM

Compound: CC[C@H](Oc1c(F)ccc(Cl)c1F)[C@H]1CCNC1 [Example 2-52, (S)-3-[(S)-1-(3-Chloro-2,6-difluorophenoxy)propyl]pyrrolidine]
- pKi (hNET [1]): ≥ 8.00
- IC50 (hNET [2]): ≤ 10 nM
- pKi (hSERT [3]): ≥ 8.00
- IC50 (hSERT [4]): ≤ 100 nM

Compound: CC[C@H](Oc1c(F)cc(F)cc1F)[C@H]1CCNC1 [Example 2-55, (S)-3-[(S)-1-(2,4,6-Trifluorophenoxy)propyl]pyrrolidine]
- pKi (hNET [1]): ≥ 8.00
- IC50 (hNET [2]): ≤ 10 nM
- pKi (hSERT [3]): ≥ 8.00
- IC50 (hSERT [4]): ≤ 100 nM

Compound: CC[C@H](Oc1ccc(F)c(OC)c1F)[C@H]1CCNC1 [Example 2-57, (S)-3-[(S)-1-(2,4-Difluoro-3-methoxyphenoxy)propyl]pyrrolidine]
- pKi (hNET [1]): ≥ 7.00
- IC50 (hNET [2]): ≤ 100 nM
- pKi (hSERT [3]): ≥ 8.00
- IC50 (hSERT [4]): ≤ 100 nM

Compound: CC[C@H](Oc1ccc(Cl)cc1C)[C@H]1CCNC1 [Example 2-58, (S)-3-[(S)-1-(4-Chloro-2-methylphenoxy)propyl]pyrrolidine]
- pKi (hNET [1]): ≥ 8.00
- IC50 (hNET [2]): ≤ 10 nM
- pKi (hSERT [3]): ≥ 8.00
- IC50 (hSERT [4]): ≤ 10 nM

Compound: CC[C@@H](Oc1ccc(Cl)cc1C)[C@@H]1CCNC1 [Example 2-60, (R)-3-[(R)-1-(4-Chloro-2-methylphenoxy)propyl]pyrrolidine]
- pKi (hNET [1]): ≥ 7.00
- IC50 (hNET [2]): ≤ 100 nM
- pKi (hSERT [3]): ≥ 8.00
- IC50 (hSERT [4]): ≤ 100 nM

Compound: CC[C@H](Oc1ccccc1C)[C@H]1CCNC1 [Example 2-62, (S)-3-((S)-1-o-Tolyloxypropyl)pyrrolidine]
- pKi (hNET [1]): ≥ 8.00
- IC50 (hNET [2]): ≤ 10 nM
- pKi (hSERT [3]): ≥ 8.00
- IC50 (hSERT [4]): ≤ 100 nM

Compound: CCc1cc(F)ccc1O[C@@H](CC)[C@H]1CCNC1 [Example 2-66, (S)-3-[(S)-1-(2-Ethyl-4-fluorophenoxy)propyl]pyrrolidine]
- pKi (hNET [1]): ≥ 8.00
- IC50 (hNET [2]): ≤ 10 nM
- pKi (hSERT [3]): ≥ 8.00
- IC50 (hSERT [4]): ≤ 10 nM

Compound: CC[C@H](Oc1ccc(Cl)cc1OC)[C@H]1CCNC1 [Example 2-68, (S)-3-[(S)-1-(4-Chloro-2-methoxyphenoxy)propyl]pyrrolidine]
- pKi (hNET [1]): ≥ 8.00
- IC50 (hNET [2]): ≤ 10 nM
- pKi (hSERT [3]): ≥ 8.00
- IC50 (hSERT [4]): ≤ 10 nM

Compound: CC[C@H](Oc1ccc(F)cc1OC)[C@H]1CCNC1 [Example 2-69, (S)-3-[(S)-1-(4-Fluoro-2-methoxyphenoxy)propyl]pyrrolidine]
- pKi (hNET [1]): ≥ 8.00
- IC50 (hNET [2]): ≤ 100 nM
- pKi (hSERT [3]): ≥ 7.00
- IC50 (hSERT [4]): ≤ 100 nM

Compound: CC[C@H](Oc1cc(F)c(Cl)cc1OC)[C@H]1CCNC1 [Example 2-70, (S)-3-[(S)-1-(4-Chloro-5-fluoro-2-methoxyphenoxy)propyl]pyrrolidine]
- pKi (hNET [1]): ≥ 8.00
- IC50 (hNET [2]): ≤ 10 nM
- pKi (hSERT [3]): ≥ 8.00
- IC50 (hSERT [4]): ≤ 100 nM

Compound: CC[C@H](Oc1cccc(Cl)c1C(F)(F)F)[C@H]1CCNC1 [Example 2-71, (S)-3-[(S)-1-(3-Chloro-2-trifluoromethylphenoxy)propyl]pyrrolidine]
- pKi (hNET [1]): ≥ 8.00
- IC50 (hNET [2]): ≤ 10 nM
- pKi (hSERT [3]): ≥ 8.00
- IC50 (hSERT [4]): ≤ 100 nM

Compound: CC[C@@H](Oc1cccc(Cl)c1C(F)(F)F)[C@@H]1CCNC1 [Example 2-72, (R)-3-[(R)-1-(3-Chloro-2-trifluoromethylphenoxy)propyl]pyrrolidine]
- pKi (hNET [1]): ≥ 8.00
- IC50 (hNET [2]): ≤ 100 nM
- pKi (hSERT [3]): ≥ 8.00
- IC50 (hSERT [4]): ≤ 100 nM

Compound: CC[C@H](Oc1ccc(Cl)cc1C(F)(F)F)[C@H]1CCNC1 [Example 2-75, (S)-3-[(S)-1-(4-Chloro-2-trifluoromethylphenoxy)propyl]pyrrolidine]
- pKi (hNET [1]): ≥ 8.00
- IC50 (hNET [2]): ≤ 10 nM
- pKi (hSERT [3]): ≥ 8.00
- IC50 (hSERT [4]): ≤ 100 nM

Compound: CCC[C@H](Oc1cccc(Cl)c1Cl)[C@H]1CCNC1 [Example 3, (S)-3-[(S)-1-(2,3-Dichlorophenoxy)butyl]pyrrolidine]
- pKi (hNET [1]): ≥ 8.00
- IC50 (hNET [2]): ≤ 10 nM
- pKi (hSERT [3]): ≥ 8.00
- IC50 (hSERT [4]): ≤ 10 nM

Compound: CCC[C@H](Oc1ccc(Cl)cc1)[C@H]1CCNC1 [Example 4-1, (S)-3-[(S)-1-(4-Chlorophenoxy)butyl]pyrrolidine]
- pKi (hNET [1]): ≥ 8.00
- IC50 (hNET [2]): ≤ 10 nM
- pKi (hSERT [3]): ≥ 8.00
- IC50 (hSERT [4]): ≤ 10 nM

Compound: CCC[C@@H](Oc1ccc(Cl)cc1)[C@H]1CCNC1 [Example 4-2, (S)-3-[(R)-1-(4-Chlorophenoxy)butyl]pyrrolidine]
- pKi (hNET [1]): ≥ 8.00
- IC50 (hNET [2]): ≤ 100 nM
- pKi (hSERT [3]): ≥ 8.00
- IC50 (hSERT [4]): ≤ 10 nM
